According to patent US9763445B2, “Safened herbicidal compositions comprising a pyridine carboxylic acid herbicide” (Dow AgroSciences, LLC, priority 2014, dated 2017):

How the values were obtained:
spring barley (HORVS) = experiment: Postemergence greenhouse trial, % visual injury on spring barley; assay type: in vivo, Hordeum vulgare; settings: HORVS, CQC-m 0
How it was run: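 Greenhouse crops at second to third true leaf stage sprayed postemergence at 187 L/ha with herbicide (g ae/ha) plus safener (g ai/ha) in acetone/DMSO diluted into 1.5% v/v Agri-dex. Injury scored visually versus solvent-blank controls after 20-22 d, 0 (none) to 100% (complete kill); expected mixture effects by Colby's equation.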

thistle (CIRAR) = experiment: Postemergence greenhouse trial, % visual injury on thistle; assay type: in vivo, Cirsium arvense; settings: Cirsium arvense, post-emergence, CIRAR, CQC-m 0, read-out: % visual injury, Ob
How it was run: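 Visual injury, 0 (none) to 100 (complete kill), rated 20-22 d after overhead track-sprayer application at 187 L/ha; Colby's equation gave expected mixture responses. Herbicide (g ae/ha) and cloquintocet-mexyl safener (g ai/ha) diluted in aqueous 1.5% v/v Agri-dex, applied to weeds at 2–3 true leaves.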

Russian thistle (SASKR) = experiment: Postemergence greenhouse trial, % visual injury on Russian thistle; assay type: in vivo, Salsola kali; settings: SASKR, CQC-m 0
[1] = system: bird's-eye speedwell (VERPE); experiment: Postemergence greenhouse trial, % visual injury on bird's-eye speedwell; assay type: in vivo, Veronica persica; settings: VERPE, CQC-m 0
Description: (§1) Seeds of the desired test plant species were planted in Sun Gro MetroMix® 306 planting mixture, which typically has a pH of 6.0 to 6.8 and an organic matter content of about 30 percent, in plastic pots with a surface area of 103.2 square centimeters (cm^2). When required to ensure good germination and healthy plants, a fungicide treatment and/or other chemical or physical treatment was applied. The plants were grown for 7-36 days (d) in a greenhouse with an approximate 14-hour (h) photoperiod which was maintained at about 23° C. during the day and 22° C. during the night. Nutrients and water were added on a regular basis and supplemental lighting was provided with overhead metal halide 1000-Watt lamps as necessary. The plants were employed for testing when they reached the second or third true leaf stage.
(§2) Weighed amounts of technical material were dissolved in a volume of 97:3 volume per volume (v/v) acetone/dimethyl sulfoxide (DMSO) to stock solutions. […] The concentrated stock solutions were diluted with an aqueous mixture of 1.5% v/v of Agri-dex crop oil concentrate to provide the appropriate application rates. Compound requirements are based upon a 12 milliliter (mL) application volume at a rate of 187 liters per hectare (L/ha). Stocks solutions of the safeners were prepared following the same procedure. Spray solutions of the safeners and experimental compound mixtures were prepared by adding the stock solutions to the appropriate amount of dilution solution to form a 12 mL spray solution in two-way combinations. Formulated compounds were applied to the plant material with an overhead Mandel track sprayer equipped with 8002E nozzles calibrated to deliver 187 L/ha over an application area of 0.503 square meters (m^2) at a spray height of 18 inches (43 centimeters (cm)) above average plant canopy. Control plants were sprayed in the same manner with the solvent blank. All herbicide application (component a) rates are in g ae/ha and all safener (component b) rates are in g ai/ha.
(§3) The treated plants and control plants were placed in a greenhouse as described above and watered by sub-irrigation to prevent wash-off of the test compounds. After 20-22 d, the condition of the test plants as compared with that of the control plants was determined visually and scored on a scale of 0 to 100 percent where 0 corresponds to no injury and 100 corresponds to complete kill. […] Colby's equation was used to determine the herbicidal effects expected from the mixtures. […]

[2] = system: purple deadnettle (LAMPU); experiment: Postemergence greenhouse trial, % visual injury on purple deadnettle; assay type: in vivo, Lamium purpureum; settings: LAMPU, CQC-m 0
Description: as §1, §2, §3

common poppy (PAPRH) = experiment: Postemergence greenhouse trial, % visual injury on common poppy; assay type: in vivo, Papaver rhoeas; settings: Papaver rhoeas, post-emergence, PAPRH, CQC-m 0, read-out: % visual injury, Ob
How it was run: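 Herbicide rates g ae/ha, safener (cloquintocet-mexyl) rates g ai/ha; spray carrier 1.5% v/v crop oil concentrate, 187 L/ha, 2nd–3rd leaf stage. Rating: visual % injury at 20-22 d.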

Structure (SMILES) | % visual injury, Ob (spring barley (HORVS); compound 4.380 g/ha) [%] | % visual injury, Ob (spring barley (HORVS); compound 8.75 g/ha) [%] | % visual injury, Ob (spring barley (HORVS); compound 17.5 g/ha) [%] | % visual injury, Ob (spring barley (HORVS); compound 35 g/ha) [%] | % visual injury, Ob (spring barley (HORVS); compound 70 g/ha) [%] | % visual injury, Ob (Russian thistle (SASKR); compound 4.380 g/ha) [%] | % visual injury, Ob (Russian thistle (SASKR); compound 8.75 g/ha) [%] | % visual injury, Ob (Russian thistle (SASKR); compound 17.5 g/ha) [%] | % visual injury, Ob (Russian thistle (SASKR); compound 35 g/ha) [%] | % visual injury, Ob (Russian thistle (SASKR); compound 70 g/ha) [%] | also measured
CO/C=N/c1c(F)c(-c2ccc3cc[nH]c3c2F)nc(C(=O)OC)c1Cl [compound 10] | 0 | 10 | 20 | 20 | 40 | 70 | 80 | 87 | 90 | 93 | pest or weed control at 4.38 g/ha (thistle (CIRAR); compound 4.380 g/ha): 30%; pest or weed control at 8.75 g/ha (thistle (CIRAR); compound 8.75 g/ha): 40%; pest or weed control at 17.5 g/ha (thistle (CIRAR); compound 17.5 g/ha): 60%; pest or weed control at 35 g/ha (thistle (CIRAR); compound 35 g/ha): 85%; pest or weed control at 70 g/ha (thistle (CIRAR); compound 70 g/ha): 100%; % visual injury, Ob ([1]; compound 4.380 g/ha): 70%; % visual injury, Ob ([1]; compound 8.75 g/ha): 85%; % visual injury, Ob ([1]; compound 17.5 g/ha): 90%; % visual injury, Ob ([1]; compound 35 g/ha): 100%; % visual injury, Ob ([1]; compound 70 g/ha): 100%
COC(=O)c1nc(-c2ccc3cc[nH]c3c2F)c(F)c(N)c1OC [compound 12] | 18 | 23 | 37 | 47 | 60 | 10 | 33 | 52 | 72 | 88 | % visual injury, Ob ([2]; compound 4.380 g/ha): 60%; % visual injury, Ob ([2]; compound 8.75 g/ha): 75%; % visual injury, Ob ([2]; compound 17.5 g/ha): 80%; % visual injury, Ob ([2]; compound 35 g/ha): 90%; % visual injury, Ob ([2]; compound 70 g/ha): 97%; pest or weed control at 4.38 g/ha (common poppy (PAPRH); compound 4.380 g/ha): 90%; pest or weed control at 8.75 g/ha (common poppy (PAPRH); compound 8.75 g/ha): 93%; pest or weed control at 17.5 g/ha (common poppy (PAPRH); compound 17.5 g/ha): 95%; pest or weed control at 35 g/ha (common poppy (PAPRH); compound 35 g/ha): 100%; pest or weed control at 70 g/ha (common poppy (PAPRH); compound 70 g/ha): 100%
